Results taken from patent US8637510B2, “Morpholinothiazoles as alpha 7 positive allosteric modulators” (Janssen Pharmaceutica NV, priority 2009, dated 2014).

Target: T1, human alpha 7-wt nAChR (Homo sapiens, UniProt P36544)
T1 construct: expressed in transfected cells
Assay: Ca2+ flux imaging (FDSS) (Protocol B)
Format: cell-based
Settings: for Emax: efficacy of 100 μM choline defined as 100% in the absence of a PAM, read-out: a7-PAM-G_[33]_Eff_Curve_FI % Efficacy; for EC50: potentiation of 100 μM choline, compounds 0.01 μM to 30 μM, read-out: a7-PAM-G_[33]_pEC50 pEC50 (converted)
Experimental: Ca^2+ Flux Imaging (FDSS) (Protocol B)
• Hanks buffered saline solution (HBSS, Invitrogen, Belgium), supplemented with 10 mM HEPES (Invitrogen, Belgium), CaCl2 to a final concentration of 5 mM, 0.1% Bovine serum albumin (Sigma-Aldrich NV, Belgium). b) Calcium-Sensitive Dye—Fluo-4AM • Fluo-4AM (Molecular Probes, USA) was dissolved in DMSO containing 10% Pluronic acid (Molecular Probes, USA) to give a stock solution which was diluted in assay buffer supplemented with 5 mM probenicid (Sigma, Aldrich NV, Belgium) to give a final concentration of 2 μM. c) 384-Well Plates • Black-sided, transparent bottomed 384 well plates coated with poly-D-lysine, PDL pre-coated (Corning, Incorporated, USA) d) Calcium Flux Measurement • A Functional drug screening system (FDSS, Hamamatsu) was used to measure intracellular free-calcium flux signals. Method
Monolayers of human alpha 7-wt nAChR-expressing cells were grown in black-sided, transparent bottomed 384 well plates coated with PDL for 24 hours prior to loading with a fluorescent calcium indicator, fluo-4AM for up to 120 minutes.
PAM activity was detected in real time by applying the compounds to be tested to the loaded cells along with an alpha 7 nicotinic receptor agonist during constant monitoring of cellular fluorescence in a FDSS. Compounds giving peak fluorescent responses greater than the response due to agonist alone, were considered to be alpha 7 nAChR PAMs. The alpha 7 nicotinic receptor agonist was choline, applied at a sub-maximal concentration of 100 μM. In a further setting of the present invention the compounds were applied prior to the alpha 7 nicotinic receptor agonist, in a particular 10 minutes prior to the agonist.
A control response to choline was calculated on each plate from the difference in peak in fluorescence in wells receiving either choline or assay buffer alone. Compounds of the present invention were tested at a concentration range from 0.01 μM to 30 μM. Compounds were considered to have an interesting activity when they potentiated the choline signal at least with 200% when tested at a concentration of 30 μM (the efficacy of 100 μM choline was defined as 100% in the absence of a PAM). An EC50 (or pEC50) was determined as a concentration relating to half the maximal effect, when a clear sigmoidal curve with top plateau was obtained.

T1 sequence (P36544 23-502): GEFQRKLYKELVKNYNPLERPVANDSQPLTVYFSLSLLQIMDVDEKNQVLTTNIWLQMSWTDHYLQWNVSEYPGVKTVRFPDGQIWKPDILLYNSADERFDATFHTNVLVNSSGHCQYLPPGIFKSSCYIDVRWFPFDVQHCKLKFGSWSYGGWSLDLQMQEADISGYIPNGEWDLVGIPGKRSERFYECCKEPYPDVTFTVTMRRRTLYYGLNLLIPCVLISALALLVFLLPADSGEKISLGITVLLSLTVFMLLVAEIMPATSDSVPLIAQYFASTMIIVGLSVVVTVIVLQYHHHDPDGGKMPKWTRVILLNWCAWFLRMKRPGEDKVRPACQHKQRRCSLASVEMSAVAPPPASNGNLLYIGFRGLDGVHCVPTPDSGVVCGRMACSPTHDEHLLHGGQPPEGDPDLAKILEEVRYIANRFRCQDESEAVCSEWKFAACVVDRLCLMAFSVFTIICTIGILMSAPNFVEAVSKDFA

Row | SMILES | Emax [%] | EC50 [nM]
1 | Cc1cc(-c2sc(N3C[C@@H](C)O[C@@H](C)C3)nc2CNC(=O)c2conc2C)ccn1 [Compound 86, N-[[2-[(2R,6S)-2,6-dimethyl-4-morpholinyl]-5-(2-methyl-4-pyridinyl)-4-thiazolyl]methyl]-3-methyl-4-isoxazolecarboxamide] | 479 | 759
2 | Cc1cc(-c2sc(N3C[C@@H](C)O[C@@H](C)C3)nc2CNC(=O)c2cccc(Cl)c2)ccn1 [Compound 91, 3-chloro-N-[[2-[(2R,6S)-2,6-dimethyl-4-morpholinyl]-5-(2-methyl-4-pyridinyl)-4-thiazolyl]methyl]-benzamide] | 445 | 407
3 | Cc1cc(-c2sc(N3C[C@@H](C)O[C@@H](C)C3)nc2CNC(=O)c2ccccc2F)ccn1 [Compound 92, N-[[2-[(2R,6S)-2,6-dimethyl-4-morpholinyl]-5-(2-methyl-4-pyridinyl)-4-thiazolyl]methyl]-2-fluoro-benzamide] | 523 | 661
4 | Cc1cc(-c2sc(N3C[C@@H](C)O[C@@H](C)C3)nc2CNC(=O)C2CCC2)c(C)cn1 [Compound 95, N-[[2-[(2R,6S)-2,6-dimethyl-4-morpholinyl]-5-(2,5-dimethyl-4-pyridinyl)-4-thiazolyl]methyl]-cyclobutanecarboxamide] | 299 | 2090
5 | Cc1nocc1C(=O)NCc1nc(N2C[C@@H](C)O[C@@H](C)C2)sc1-c1ccncc1 [Compound 101, N-[[2-[(2R,6S)-2,6-dimethyl-4-morpholinyl]-5-(4-pyridinyl)-4-thiazolyl]methyl]-3-methyl-4-isoxazolecarboxamide] |  | 6610
6 | Cc1cc(-c2sc(N3C[C@@H](C)O[C@@H](C)C3)nc2CNC(=O)CC2CC2)cc(C2CC2)n1 [Compound 104, N-[[5-(2-cyclopropy1-6-methyl-4-pyridinyl)-2-[(2R,6S)-2,6-dimethyl-4-morpholinyl]-4-thiazolyl]methyl]-cyclopropaneacetamide] | 923 | 61.7
7 | Cc1cc(-c2sc(N3C[C@@H](C)O[C@@H](C)C3)nc2CNC(=O)c2cc(C)on2)cc(C2CC2)n1 [Compound 105, N-[[5-(2-cyclopropy1-6-methyl-4-pyridinyl)-2-[(2R,6S)-2,6-dimethyl-4-morpholinyl]-4-thiazolyl]methyl]-5-methyl-3-isoxazolecarboxamide] | 895 | 288
8 | Cc1cc(-c2sc(N3C[C@@H](C)O[C@@H](C)C3)nc2CNC(=O)c2conc2C)cc(C2CC2)n1 [Compound 106, N-[[5-(2-cyclopropy1-6-methyl-4-pyridinyl)-2-[(2R,6S)-2,6-dimethyl-4-morpholinyl]-4-thiazolyl]methyl]-3-methyl-4-isoxazolecarboxamide] | 650 | 81.3
9 | Cc1cc(-c2sc(N3C[C@@H](C)O[C@@H](C)C3)nc2CNC(=O)c2ccc(F)cc2C)cc(C2CC2)n1 [Compound 107, N-[[5-(2-cyclopropy1-6-methyl-4-pyridinyl)-2-[(2R,6S)-2,6-dimethyl-4-morpholinyl]-4-thiazolyl]methyl]-4-fluoro-2-methyl-benzamide] | 780 | 26.9
10 | Cc1cc(-c2sc(N3C[C@@H](C)O[C@@H](C)C3)nc2CNC(=O)C(C)C)cc(C2CC2)n1 [Compound 108, N-[[5-(2-cyclopropy1-6-methyl-4-pyridinyl)-2-[(2R,6S)-2,6-dimethyl-4-morpholinyl]-4-thiazolyl]methyl]-2-methyl-propanamide] | 764 | 72.4
11 | Cc1cc(-c2sc(N3C[C@@H](C)O[C@@H](C)C3)nc2CNC(=O)C2CC2)cc(C2CC2)n1 [Compound 109, N-[[5-(2-cyclopropy1-6-methyl-4-pyridinyl)-2-[(2R,6S)-2,6-dimethyl-4-morpholinyl]-4-thiazolyl]methyl]-cyclopropanecarboxamide] | 826 | 224
12 | Cc1cc(-c2sc(N3C[C@@H](C)O[C@@H](C)C3)nc2CNC(=O)CC(C)C)cc(C2CC2)n1 [Compound 110, N-[[5-(2-cyclopropy1-6-methyl-4-pyridinyl)-2-[(2R,6S)-2,6-dimethyl-4-morpholinyl]-4-thiazolyl]methyl]-3-methyl-butanamide] | 957 | 12.3
13 | CC(C)C(=O)NCc1nc(N2CCOCC2)sc1-c1ccncc1 [Compound 115, 2-methyl-N-[[2-(4-morpholinyl)-5-(4-pyridinyl)-4-thiazolyl]methyl]-propanamide] | 230 | 9330
14 | Cc1ccc(-c2sc(N3C[C@@H](C)O[C@@H](C)C3)nc2CNC(=O)c2ccccc2F)cn1 [Compound 124, N-[[2-[(2R,6S)-2,6-dimethyl-4-morpholinyl]-5-(6-methyl-3-pyridinyl)-4-thiazolyl]methyl]-2-fluoro-benzamide] | 356 | 
15 | Cc1cc(-c2sc(N3C[C@@H](C)O[C@@H](C)C3)nc2CNC(=O)c2cc(C3CC3)on2)cc(C)n1 [Compound 127, 5-cyclopropyl-N-[[2-[(2R,6S)-2,6-dimethyl-4-morpholinyl]-5-(2,6-dimethyl-4-pyridinyl)-4-thiazolyl]methyl]-3-isoxazolecarboxamide] |  | 692
16 | Cc1cc(-c2sc(N3C[C@@H](C)O[C@@H](C)C3)nc2CNC(=O)CCC(F)(F)F)cc(C)n1 [Compound 128, N-[[2-[(2R,6S)-2,6-dimethyl-4-morpholinyl]-5-(2,6-dimethyl-4-pyridinyl)-4-thiazolyl]methyl]-4,4,4-trifluoro-butanamide] |  | 51.3
17 | Cc1cc(-c2sc(N3C[C@@H](C)O[C@@H](C)C3)nc2CNC(=O)c2cc(C)nn2C(C)(C)C)cc(C)n1 [Compound 129, 1-(1,1-dimethylethyl)-N-[[2-[(2R,6S)-2,6-dimethyl-4-morpholinyl]-5-(2,6-dimethyl-4-pyridinyl)-4-thiazolyl]methyl]-3-methyl-1H-pyrazole-5-carboxamide] |  | 912
18 | Cc1cc(-c2sc(N3C[C@@H](C)O[C@@H](C)C3)nc2CNC(=O)c2noc3ccccc23)cc(C)n1 [Compound 130, N-[[2-[(2R,6S)-2,6-dimethyl-4-morpholinyl]-5-(2,6-dimethyl-4-pyridinyl)-4-thiazolyl]methyl]-1,2-benzisoxazole-3-carboxamide] |  | 309
19 | Cc1cc(-c2sc(N3C[C@@H](C)O[C@@H](C)C3)nc2CNC(=O)c2cc(C)n(C)n2)cc(C)n1 [Compound 131, N-[[2-[(2R,6S)-2,6-dimethyl-4-morpholinyl]-5-(2,6-dimethyl-4-pyridinyl)-4-thiazolyl]methyl]-1,5-dimethyl-1H-pyrazole-3-carboxamide] | 462 | 
20 | Cc1cc(-c2sc(N3C[C@@H](C)O[C@@H](C)C3)nc2CNC(=O)c2cc(C(C)C)on2)cc(C)n1 [Compound 135, N-[[2-[(2R,6S)-2,6-dimethyl-4-morpholinyl]-5-(2,6-dimethyl-4-pyridinyl)-4-thiazolyl]methyl]-5-(1-methylethyl)-3-isoxazolecarboxamide] |  | 537
21 | Cc1cc(-c2sc(N3C[C@@H](C)O[C@@H](C)C3)nc2CNC(=O)c2cc(C)nn2C)cc(C)n1 [Compound 136, N-[[2-[(2R,6S)-2,6-dimethyl-4-morpholinyl]-5-(2,6-dimethyl-4-pyridinyl)-4-thiazolyl]methyl]-1,3-dimethyl-1H-pyrazole-5-carboxamide] |  | 1950
22 | Cc1cc(-c2sc(N3C[C@@H](C)O[C@@H](C)C3)nc2CNC(=O)c2cnccn2)cc(C)n1 [Compound 138, N-[[2-[(2R,6S)-2,6-dimethyl-4-morpholinyl]-5-(2,6-dimethyl-4-pyridinyl)-4-thiazolyl]methyl]-2-pyrazinecarboxamide] | 837 | 4680
23 | Cc1cc(-c2sc(N3C[C@@H](C)O[C@@H](C)C3)nc2CNC(=O)c2cc(C)n(C(C)(C)C)n2)cc(C)n1 [Compound 139, 1-(1,1-dimethylethyl)-N-[[2-[(2R,6S)-2,6-dimethyl-4-morpholinyl]-5-(2,6-dimethyl-4-pyridinyl)-4-thiazolyl]methyl]-5-methyl-1H-pyrazole-3-carboxamide] | 699 | 617
24 | COc1cccc(C(=O)NCc2nc(N3C[C@@H](C)O[C@@H](C)C3)sc2-c2cc(C)nc(C)c2)n1 [Compound 140, N-[[2-[(2R,6S)-2,6-dimethyl-4-morpholinyl]-5-(2,6-dimethyl-4-pyridinyl)-4-thiazolyl]methyl]-6-methoxy-2-pyridinecarboxamide] | 451 | 1200
